Test results reported in patent US9969716B2, “Indole derivatives as modulators of methyl modifying enzymes, compositions and uses thereof” (Constellation Pharmaceuticals, Inc., priority 2013, dated 2018).
pEC50, pIC50: −log10 of the molar value. Like-named read-outs stand apart in the source and are kept apart here.

How the values were obtained:
EZH2 = EZH2 (Homo sapiens, UniProt Q15910); test: EZH2 assay (rPRC2, 3H SAM methyl transfer to biotinylated oligonucleosomes, FlashPlate); assay type: biochemical
Experimental: EZH2 Assay: Assays were carried out by mixing rPRC2 together with biotinylated oligonucleosome substrates in the presence of the radio-labeled enzyme co-factor, S-adenosyl-L-methionine (^3H SAM) (Perkin Elmer) and monitoring the enzymatically mediated transfer of tritiated methyl groups from ^3H SAM to histone lysine residues. The amount of resulting tritiated methyl histone product was measured by first capturing the biotinylated oligonucleosomes in streptavidin (SAV) coated FlashPlates (Perkin Elmer), followed by a wash step to remove un-reacted ^3H SAM, and then counting on a TopCount NXT 384 well plate scintillation counter (Perkin Elmer). The final assay conditions for EZH2 were as follows: 50 mM Tris Buffer pH 8.5, 1 mM DTT, 69 μM Brij-35 detergent, 5.0 mM MgCl2, 0.1 mg/mL BSA, 0.2 μM ^3H SAM, 0.2 μM biotinylated oligonucleosomes, 3.6 μM H3K27me3 peptide and 2 nM EZH2.
A 12.5 μL volume of the HMT enzyme, H3K27me3 peptide and oligonucleosome substrate in assay buffer was added to each well of the assay plate using a Multidrop Combi (ThermoFisher). Compounds were pre-incubated with the enzyme for 20 min, followed by initiation of the methyltransferase reaction by addition of 12.5 μL of ^3H SAM in assay buffer (final volume=25 μL). The final concentrations of compounds ranged from a top default concentration of 80 μM down to 0.16 μM in ten 2-fold dilution steps. Reactions were carried out for 60 minutes and quenched with 20 μL per well of 1.96 mM SAH, 50 mM Tris pH 8.5, 200 mM EDTA. Stopped reactions were transferred to SAV coated Flashplates (Perkin Elmer), incubated for 120 min, washed with a plate washer, and then read on the TopCount NXT (1.0 min/well) to measure the amount of methyl histone product formed during the reaction.

[1] = system: H3K27me3 mark in HeLa cells; test: H3K27me3 Alpha Hela Assay (AlphaLISA); assay type: cell-based; conditions: Homo sapiens, 72 hrs, read-out: EZH2_Cell_H3K27me3_Alpha_HeLa (EC50_K27me3)
Experimental: Ten different doses of each test compound (in a series of 3-fold dilutions) were plated in duplicate 384-well tissue culture treated plates (Catalog #781080; Greiner Bio One; Monroe, N.C.). Hela cells grown in culture were trypsinized and counted using a Countess® cell counter (Catalog # C10281; Life Technologies, Grand Island, N.Y.). Cell were diluted to 67,000 cells per mL in 10% DMEM (Catalog #10569-010 Life Technologies, Grand Island, N.Y.) and 15 μL (1,000 cells) were plated into each well using the Biotek MicroFlo™ Select Dispenser (BioTek Instruments, Inc. Vermont, USA),) of the 384-well plate. Plates were incubated at 37° C./5% CO2 for 72 hrs. One of the duplicate plates was processed for HeLa assay and the other for viability.
To the plate processed for AlphaLISA was added 5 μL per well Cell-Histone Lysis buffer (1λ) (Catalog # AL009F1 Perkin Elmer; Waltham, Mass.) and the plate was incubated at RT for 30 minutes on a plate shaker with low speed (Model#4625-Q Thermo Scientific; Waltham, Mass.). Then, 10 μL per well Histone Extraction buffer (catalog # AL009F2; Perkin Elmer; Waltham, Mass.) was added and the plate further incubated at RT for 20 min on plate shaker with low speed. To each well was then added 10 μL per well of a 5× mix of anti-K27me3 acceptor beads plus Biotinylated anti-Histone H3 (C-ter) Antibody (diluted to 3 nM final) (Catalog #AL118 Perkin Elmer; Waltham, Mass.). Dilution of the acceptor beads and then anti-Histone H3 was with 1× Histone Detection buffer (Catalog # AL009F3 Perkin Elmer; Waltham, Mass.) which was produced diluted from the 10× stock provided. The plate was sealed with an aluminum plate sealer and incubated at 23° C. for 60 min. We then added 10 μL 5× solution of Streptavidin Donor beads (Catalog #6760002 Perkin Elmer; Waltham, Mass.) (20 μg/mL final in 1× Histone Detection Buffer), sealed the plate with Aluminum plate sealer and incubated at 23° C. for 30 min. The plates were then read using an EnVision-Alpha Reader (model #2104 Perkin Elmer; Waltham, Mass.).
Data from both assays was analyzed using Assay Assistant (Constellation Pharmaceuticals In-house product) and Activity Base (IDBS Ltd, Surrey, UK) template. Data files were imported to Assay Assistant and assay conditions were specified. A unique Analysis ID was created and the data files exported to Activity Base. An analysis template was created on Activity Base to measure dose-dependent inhibition of H3K27me3 mark and cell viability respectively. Readout of DMSO wells were used to normalize the data. Resulting curves were fitted using Activity base software Model 205 (IDBS Ltd, Surrey, UK). The data was checked for quality, validated and integrated in excel format using SARview (IDBS Ltd, Surrey, UK).

EZH2, sequence (Q15910 whole entry): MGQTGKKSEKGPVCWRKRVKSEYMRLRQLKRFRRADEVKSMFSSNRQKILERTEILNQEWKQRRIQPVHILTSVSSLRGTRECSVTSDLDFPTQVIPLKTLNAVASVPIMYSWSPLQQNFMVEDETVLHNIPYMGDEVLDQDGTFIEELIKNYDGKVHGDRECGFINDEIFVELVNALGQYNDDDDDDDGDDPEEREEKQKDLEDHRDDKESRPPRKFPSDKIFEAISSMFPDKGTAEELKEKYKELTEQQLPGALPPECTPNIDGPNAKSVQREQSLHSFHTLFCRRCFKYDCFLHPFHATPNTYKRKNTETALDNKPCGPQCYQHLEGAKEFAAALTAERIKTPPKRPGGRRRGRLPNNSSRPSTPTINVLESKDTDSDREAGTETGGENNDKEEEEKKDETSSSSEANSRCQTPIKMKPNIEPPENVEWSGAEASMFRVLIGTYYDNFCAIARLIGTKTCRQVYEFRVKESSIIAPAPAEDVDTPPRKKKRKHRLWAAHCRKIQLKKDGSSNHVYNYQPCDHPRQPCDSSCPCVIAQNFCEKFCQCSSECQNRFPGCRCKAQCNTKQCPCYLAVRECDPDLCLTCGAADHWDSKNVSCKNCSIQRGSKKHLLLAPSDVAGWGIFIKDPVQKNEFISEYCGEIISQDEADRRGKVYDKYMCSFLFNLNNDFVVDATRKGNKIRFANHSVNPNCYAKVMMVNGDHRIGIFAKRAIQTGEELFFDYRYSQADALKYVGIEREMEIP
EZH2, sequence (O75530 whole entry partner): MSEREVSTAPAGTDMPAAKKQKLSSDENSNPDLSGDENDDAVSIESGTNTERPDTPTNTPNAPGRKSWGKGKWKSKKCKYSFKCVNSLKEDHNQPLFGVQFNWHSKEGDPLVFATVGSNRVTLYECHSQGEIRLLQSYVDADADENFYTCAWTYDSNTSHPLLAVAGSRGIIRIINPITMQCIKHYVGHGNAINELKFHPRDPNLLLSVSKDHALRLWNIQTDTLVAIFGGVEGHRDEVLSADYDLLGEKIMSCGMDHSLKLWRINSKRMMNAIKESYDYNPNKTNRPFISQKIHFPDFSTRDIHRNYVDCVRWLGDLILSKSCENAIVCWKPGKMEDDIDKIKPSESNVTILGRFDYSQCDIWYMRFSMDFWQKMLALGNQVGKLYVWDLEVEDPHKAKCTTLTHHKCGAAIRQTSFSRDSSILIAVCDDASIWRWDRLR
EZH2, sequence (Q15022 whole entry partner): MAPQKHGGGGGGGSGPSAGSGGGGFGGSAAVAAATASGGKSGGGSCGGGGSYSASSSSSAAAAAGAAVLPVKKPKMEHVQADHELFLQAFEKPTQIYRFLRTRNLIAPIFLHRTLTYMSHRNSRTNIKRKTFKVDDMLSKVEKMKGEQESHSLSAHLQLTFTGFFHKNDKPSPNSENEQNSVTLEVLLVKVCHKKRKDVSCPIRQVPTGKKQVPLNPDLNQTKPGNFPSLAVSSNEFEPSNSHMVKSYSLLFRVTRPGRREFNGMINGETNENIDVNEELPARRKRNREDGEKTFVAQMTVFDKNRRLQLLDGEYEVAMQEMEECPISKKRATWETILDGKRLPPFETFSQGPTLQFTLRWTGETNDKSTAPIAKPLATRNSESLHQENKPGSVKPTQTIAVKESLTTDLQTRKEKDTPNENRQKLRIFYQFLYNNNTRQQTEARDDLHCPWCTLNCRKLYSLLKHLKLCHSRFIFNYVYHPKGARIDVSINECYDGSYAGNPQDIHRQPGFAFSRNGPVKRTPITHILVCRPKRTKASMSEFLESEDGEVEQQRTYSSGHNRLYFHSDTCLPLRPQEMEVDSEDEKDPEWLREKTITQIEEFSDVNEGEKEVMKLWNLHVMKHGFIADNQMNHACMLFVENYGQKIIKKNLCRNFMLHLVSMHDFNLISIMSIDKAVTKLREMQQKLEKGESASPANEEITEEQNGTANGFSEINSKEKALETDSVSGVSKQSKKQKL

Row | Compound | pIC50 (EZH2) | pEC50 [1] | pIC50 (EZH2; 2 nM EZH2, 0.2 μM 3H SAM, 0.2 μM biotinylated oligonucleosomes, 3.6 μM H3K27me3 peptide, 60 min, read-out: EZH2_nuc_BSA_Brij_1.5 (IC50))
1 | COc1cc(C)[nH]c(=O)c1CNC(=O)c1c(C)n([C@H](C)C2CCN(C(=O)C3CCC(C)CC3)CC2)c2ccccc12 (mixture of isomers) [Compound 234] | > 7.00 | > 6.40 | –
2 | CCS(=O)(=O)N1CCC([C@@H](C)n2c(C)c(C(=O)NCc3c(OCC(F)(F)F)cc(C)[nH]c3=O)c3ccccc32)CC1 [Compound 163] | – | 5.70 to 6.40 | –
3 | COc1cc(C)[nH]c(=O)c1CNC(=O)c1c(C)n([C@H](C)C2CCN(C(=O)C3CCCC3)CC2)c2ccccc12 [Compound 235] | > 7.00 | 5.70 to 6.40 | –
4 | COc1cc(C)[nH]c(=O)c1CNC(=O)c1c(C)n([C@H](C)C2CCN(C(=O)C3(C)CCCC3)CC2)c2ccccc12 [Compound 191] | > 7.00 | 5.70 to 6.40 | –
5 | COc1cc(C)[nH]c(=O)c1CNC(=O)c1c(C)n([C@H](C)C2CCN(Cc3ccncc3F)CC2)c2ccccc12 [Compound 260] | > 7.00 | > 6.40 | –
6 | COc1cc(C)[nH]c(=O)c1CNC(=O)c1c(C)n([C@H](C)C2CCN(Cc3cnn(C)c3)CC2)c2ccccc12 [Compound 238] | > 7.00 | < 5.70 | –
7 | CCCC(=O)N1CCC([C@@H](C)n2c(C)c(C(=O)NCc3c(OC)cc(C)[nH]c3=O)c3ccccc32)CC1 [Compound 209] | > 7.00 | 5.70 to 6.40 | –
8 | CC[C@H](C1CCN(CC(F)F)CC1)n1c(C)c(C(=O)NCc2c(OC)cc(C)[nH]c2=O)c2ccccc21 [Compound 219] | > 7.00 | > 6.40 | –
9 | COc1cc(C)[nH]c(=O)c1CNC(=O)c1c(C)n([C@H](C)C2CCN(CC3COC3)CC2)c2ccccc12 [Compound 180] | > 7.00 | < 5.70 | –
10 | COc1cc(C)[nH]c(=O)c1CNC(=O)c1c(C)n([C@H](C)C2CCN(Cc3cncc(F)c3)CC2)c2ccccc12 [Compound 257] | > 7.00 | > 6.40 | –
11 | COc1cc(C)[nH]c(=O)c1CNC(=O)c1c(C)n([C@H](C)C2CCN(CC(C)(C)OC)CC2)c2ccccc12 [Compound 128] | – | > 6.40 | –
12 | COCC(F)(F)CN1CCC([C@@H](C)n2c(C)c(C(=O)NCc3c(OC)cc(C)[nH]c3=O)c3ccccc32)CC1 [Compound 181] | > 7.00 | > 6.40 | –
13 | COc1cc(C)[nH]c(=O)c1CNC(=O)c1c(C)n([C@H](C)C2CCN(C(=O)C3CC3(F)F)CC2)c2ccccc12 (some centres unmarked) [Compound 229] | > 7.00 | 5.70 to 6.40 | –
14 | COc1cc(C)[nH]c(=O)c1CNC(=O)c1c(C)n([C@H](C)C2CCN(Cc3cnccc3C#N)CC2)c2ccccc12 [Compound 268] | > 7.00 | > 6.40 | –
15 | COc1cc(C)[nH]c(=O)c1CNC(=O)c1c(C)n([C@H](C)C2CCN(CC(C)=O)CC2)c2ccccc12 [Compound 169] | – | – | > 7.00
16 | COc1cc(C)[nH]c(=O)c1CNC(=O)c1c(C)n([C@H](C)C2CCN(C(C)C(F)F)CC2)c2ccccc12 (some centres unmarked) [Compound 177] | > 7.00 | > 6.40 | –
17 | COc1cc(C)[nH]c(=O)c1CNC(=O)c1c(C)n([C@H](C)C2CCN(C3CC3)CC2)c2ccccc12 [Compound 254] | > 7.00 | > 6.40 | –
18 | COc1cc(C)[nH]c(=O)c1CNC(=O)c1c(C)n([C@H](C)C2CCN(Cc3ccnc(C#N)c3)CC2)c2ccccc12 [Compound 264] | > 7.00 | > 6.40 | –
19 | COc1cc(C)[nH]c(=O)c1CNC(=O)c1c(C)n([C@H](C)C2CCN(Cc3cccc(F)c3)CC2)c2ccccc12 [Compound 263] | > 7.00 | > 6.40 | –

Row | Compound | pIC50 (EZH2) | pEC50 [1] | pIC50 (EZH2; 2 nM EZH2, 0.2 μM 3H SAM, 0.2 μM biotinylated oligonucleosomes, 3.6 μM H3K27me3 peptide, 60 min, read-out: EZH2_nuc_BSA_Brij_1.5 (IC50))
20 | COc1cc(C)[nH]c(=O)c1CNC(=O)c1c(C)n([C@H](C)C2CCN(C(=O)Cc3ccccc3)CC2)c2ccccc12 [Compound 212] | > 7.00 | > 6.40 | –
21 | COc1cc(C)[nH]c(=O)c1CNC(=O)c1c(C)n([C@H](C)C2CCN(C(=O)CC(C)C)CC2)c2ccccc12 [Compound 213] | > 7.00 | > 6.40 | –
22 | COc1cc(C)[nH]c(=O)c1CNC(=O)c1c(C)n([C@H](C)C2CCN(Cc3ccn(C)n3)CC2)c2ccccc12 [Compound 255] | > 7.00 | < 5.70 | –
23 | COc1cc(C)[nH]c(=O)c1CNC(=O)c1c(C)n([C@H](C)C2CCN(Cc3cccc(C)n3)CC2)c2ccccc12 [Compound 267] | > 7.00 | > 6.40 | –
24 | COc1cc(C)[nH]c(=O)c1CNC(=O)c1c(C)n([C@H](C)C2CCN(C(=O)C(C)=O)CC2)c2ccccc12 [Compound 211] | > 7.00 | 5.70 to 6.40 | –
25 | CC(=O)N1CC(N2CCC([C@@H](C)n3c(C)c(C(=O)NCc4c(C)cc(C)[nH]c4=O)c4ccccc43)CC2)C1 [Compound 231] | > 7.00 | 5.70 to 6.40 | –
26 | COc1cc(C)[nH]c(=O)c1CNC(=O)c1c(C)n([C@H](C)C2CCN(C(=O)C3(C)CC3)CC2)c2ccccc12 [Compound 190] | > 7.00 | 5.70 to 6.40 | –
27 | COc1cc(C)[nH]c(=O)c1CNC(=O)c1c(C)n([C@H](C)C2CCN(Cc3ncccn3)CC2)c2ccccc12 [Compound 241] | > 7.00 | 5.70 to 6.40 | –
28 | COc1cc(C)[nH]c(=O)c1CNC(=O)c1c(C)n([C@H](C)C2CCN(CC3CCO3)CC2)c2ccccc12 (some centres unmarked) [Compound 179] | > 7.00 | 5.70 to 6.40 | –
29 | COc1cc(C)[nH]c(=O)c1CNC(=O)c1c(C)n([C@H](C)C2CCN(CC3(F)COC3)CC2)c2ccccc12 [Compound 222] | > 7.00 | > 6.40 | –
30 | CCC(C)C(=O)N1CCC([C@@H](C)n2c(C)c(C(=O)NCc3c(OC)cc(C)[nH]c3=O)c3ccccc32)CC1 (some centres unmarked) [Compound 210] | > 7.00 | 5.70 to 6.40 | –
31 | COc1cc(C)[nH]c(=O)c1CNC(=O)c1c(C)n([C@H](C)C2CCN(C(=O)N3CCC(F)(F)C3)CC2)c2ccccc12 [Compound 248] | > 7.00 | 5.70 to 6.40 | –
32 | COc1cc(C)[nH]c(=O)c1CNC(=O)c1c(C)n([C@H](C)C2CCN(C(=O)Cc3cc(C)no3)CC2)c2ccccc12 [Compound 247] | > 7.00 | 5.70 to 6.40 | –
33 | COCC(F)(F)C(=O)N1CCC([C@@H](C)n2c(C)c(C(=O)NCc3c(OC)cc(C)[nH]c3=O)c3ccccc32)CC1 [Compound 230] | > 7.00 | > 6.40 | –
34 | COc1cc(C)[nH]c(=O)c1CNC(=O)c1c(C)n([C@H](C)C2CCN(Cc3cc(C)nc(C)c3)CC2)c2ccccc12 [Compound 252] | > 7.00 | > 6.40 | –
35 | COc1cc(C)[nH]c(=O)c1CNC(=O)c1c(C)n([C@H](C)C2CCN(CCC#N)CC2)c2ccccc12 [Compound 206] | > 7.00 | > 6.40 | –
36 | COc1cc(C)[nH]c(=O)c1CNC(=O)c1c(C)n([C@H](C)C2CCN(CCS(C)(=O)=O)CC2)c2ccccc12 [Compound 207] | > 7.00 | < 5.70 | –
37 | CCCc1cc(C)[nH]c(=O)c1CNC(=O)c1c(C)n([C@H](C)C2CCN(S(=O)(=O)CC)CC2)c2ccccc12 [Compound 132] | – | > 6.40 | –
38 | COc1cc(C)[nH]c(=O)c1CNC(=O)c1c(C)n([C@H](C)C2CCN(CC3(C(F)(F)F)CCC3)CC2)c2ccccc12 [Compound 135] | – | > 6.40 | –
